Experiments:
CIC-1 channels = molecular target: T1, CIC-1 channels (Rattus norvegicus, UniProt P35524); assay: Electrophysiological measurement of compound inhibition of CIC-1 (Gm) in rat soleus muscle fibres: EC50 (Table 7)
T1 sequence (P35524 1-994): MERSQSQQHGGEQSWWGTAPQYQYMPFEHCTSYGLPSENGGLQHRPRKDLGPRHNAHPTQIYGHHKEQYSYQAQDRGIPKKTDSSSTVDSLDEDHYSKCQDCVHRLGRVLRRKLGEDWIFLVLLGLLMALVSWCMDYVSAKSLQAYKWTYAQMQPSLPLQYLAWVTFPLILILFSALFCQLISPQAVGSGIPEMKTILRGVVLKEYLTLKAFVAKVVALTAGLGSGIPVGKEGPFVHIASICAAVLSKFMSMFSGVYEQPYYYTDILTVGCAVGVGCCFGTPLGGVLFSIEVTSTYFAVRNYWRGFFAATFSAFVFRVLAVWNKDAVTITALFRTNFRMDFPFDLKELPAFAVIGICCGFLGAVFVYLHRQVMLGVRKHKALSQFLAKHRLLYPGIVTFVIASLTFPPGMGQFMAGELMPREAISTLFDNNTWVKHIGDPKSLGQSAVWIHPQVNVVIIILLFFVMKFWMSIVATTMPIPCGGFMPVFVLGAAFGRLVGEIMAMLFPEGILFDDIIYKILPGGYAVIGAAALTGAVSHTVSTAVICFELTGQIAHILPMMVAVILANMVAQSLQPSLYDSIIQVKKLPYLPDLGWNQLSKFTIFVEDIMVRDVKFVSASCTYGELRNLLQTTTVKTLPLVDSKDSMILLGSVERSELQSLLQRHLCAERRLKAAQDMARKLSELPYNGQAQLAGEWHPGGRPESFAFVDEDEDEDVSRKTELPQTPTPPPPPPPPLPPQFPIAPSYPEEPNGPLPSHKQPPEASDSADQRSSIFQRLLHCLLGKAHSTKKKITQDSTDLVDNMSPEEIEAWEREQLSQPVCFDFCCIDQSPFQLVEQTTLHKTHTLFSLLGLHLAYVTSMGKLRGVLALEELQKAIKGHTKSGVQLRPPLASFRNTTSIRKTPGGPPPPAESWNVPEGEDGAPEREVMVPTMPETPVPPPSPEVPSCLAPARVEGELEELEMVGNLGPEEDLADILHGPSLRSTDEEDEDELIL

human CIC-1 channels = molecular target: T2, human CIC-1 channels (Homo sapiens, UniProt P35523); assay: Automated patch-clamp on human CIC-1 expressed in CHO cells: shift of half activation voltage ΔV1/2; type: cell-based; settings: compound in intracellular solution vs control cell patches; CHO cells expressing human CIC-1
T2 construct: host or cells: CHO (Chinese hamster ovary) cells constitutively expressing human ClC-1
T2 sequence (P35523 whole entry): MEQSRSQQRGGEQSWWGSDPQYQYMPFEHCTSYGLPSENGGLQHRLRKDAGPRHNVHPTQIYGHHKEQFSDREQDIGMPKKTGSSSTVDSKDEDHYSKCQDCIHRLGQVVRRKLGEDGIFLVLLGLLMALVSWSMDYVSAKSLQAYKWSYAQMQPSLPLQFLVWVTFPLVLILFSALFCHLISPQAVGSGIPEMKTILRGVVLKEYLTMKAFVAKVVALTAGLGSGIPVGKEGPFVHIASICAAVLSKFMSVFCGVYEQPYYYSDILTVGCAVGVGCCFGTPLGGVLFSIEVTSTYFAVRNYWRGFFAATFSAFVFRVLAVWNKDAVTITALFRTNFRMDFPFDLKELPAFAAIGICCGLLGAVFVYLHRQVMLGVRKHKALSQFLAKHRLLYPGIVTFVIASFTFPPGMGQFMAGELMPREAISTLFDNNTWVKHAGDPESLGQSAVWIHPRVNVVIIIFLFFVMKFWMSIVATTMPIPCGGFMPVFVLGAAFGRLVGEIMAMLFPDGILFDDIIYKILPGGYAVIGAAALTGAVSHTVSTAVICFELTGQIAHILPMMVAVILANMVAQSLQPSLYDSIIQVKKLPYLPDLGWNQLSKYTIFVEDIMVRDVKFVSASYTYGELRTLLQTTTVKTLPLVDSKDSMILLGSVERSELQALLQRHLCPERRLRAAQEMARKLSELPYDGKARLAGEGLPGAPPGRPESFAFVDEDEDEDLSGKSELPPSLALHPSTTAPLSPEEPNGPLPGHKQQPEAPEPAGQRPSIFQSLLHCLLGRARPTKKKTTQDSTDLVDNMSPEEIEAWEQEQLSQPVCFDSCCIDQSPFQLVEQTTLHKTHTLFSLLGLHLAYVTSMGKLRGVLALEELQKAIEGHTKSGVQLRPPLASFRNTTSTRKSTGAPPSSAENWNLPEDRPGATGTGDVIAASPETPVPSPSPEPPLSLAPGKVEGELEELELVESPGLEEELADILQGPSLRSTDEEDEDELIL
Protocol: FIGS. 13A-13B: FIG. 13A illustrates the voltage protocol used to evoke currents in whole cell patches of CHO cells expressing human CIC-1 channels.
Experiments were performed using an automated patch clamp system that allowed high throughput testing of whole cell patches together with both intracellular and extracellular addition of compound.
Automated whole cell patch clamp experiments were performed with the Qpatch 16 system (Sophion Bioscience, Ballerup, Denmark) at room temperature. Data acquisition and analysis were performed in the Qassay software (ver. 5.6, Odense).
To evoke CIC-1 currents in whole cell patches, the membrane potential was initially stepped from a holding potential of −30 mV to +60 mV for 100 ms and then to various test voltages (sweeps) ranging from +120 mV to −140 mV in steps of 20 mV for 300 ms. To obtain tail currents, the membrane potential was stepped to −100 mV after each test voltage for 300 ms and then relaxed to −30 mV for 2 sec between sweeps (FIG. 3).
I/V relationships for whole cell instant and steady state current amplitudes were obtained by plotting average current densities at the beginning and at the end of the 300 ms step against the membrane potential (FIG. 4).
In order to determine the relative overall open probability (Po), the instantaneous tail currents were normalized to the maximal tail current obtained following the most positive voltage step and plotted against the test voltage. Plots of normalized tail currents from each whole cell patch were then fitted to a Boltzmann function allowing determination of half activation voltages (V1/2, FIG. 5).
For automated patch clamp experiments extracellular solutions contained: 2 mM CaCl2), 1 mM MgCl2, 10 mM HEPES, 4 mM KCl, 145 mM NaCl, 10 mM Glucose, pH adjusted to 7.4 with NaOH (2 M). Osmolality adjusted to ˜320 using sucrose.
Intracellular solutions contained: 80 mM CsF, 60 mM CsCl, 5/1 mM KOH/EGTA, 10 mM HEPES, 10 mM NaCl, pH adjusted to 7.2 with NaOH (2 M). Osmolality adjusted to ˜320 mOsm using sucrose.
Cells used in patch clamp experiments were Chinese hamster ovary cells (CHO) constitutively expressing human CIC-1 channels. The amino acid sequence encoded by the cDNA used to create this cell line was identical to the translated sequence for GenBank accession number NM_000083.2. Cells were produced by Charles River (Catalogue CT6175, Cleveland OH, USA) in a cryopreserved format. Experiments were performed on the cells directly after thawing (3×10^6 cells used in each experiment).
To evaluate the compound effect on CIC-1, when applied directly to the intracellular side of the cell membrane, the half activation voltage, V1/2, was determined from whole cell patches with compound added to the intracellular solution and then compared to V1/2 determined from control cell patches with only vehicle added to the intracellular solution. Additionally, the effect of extracellular added compound was evaluated by determine V1/2 and steady state current amplitudes before and after exchanging the extracellular solution to contain compound.
The difference in half activation voltage of CIC-1 channels, ΔV1/2, was determined as the difference between the cell patches treated intracellularly with compound and control cells patches and is reported in Table 4 below. A positive shift in ΔV 1/2 is reflecting CIC-1 channel inhibition by the tested compound. P-values of <0.05 is considered significant.

Structure (SMILES)	EC50 (CIC-1 channels)	Δ1/2 (mV) (human CIC-1 channels)
C[C@H](Oc1ccc(Cl)cc1-c1ccno1)C(=O)O [Compound A-26, (2S)-2-[4-chloro-2-(1,2-oxazol-5-yl)phenoxy]propanoic acid]	3.6 µM	21 mV
C[C@H](Oc1ccc(Br)cc1-c1csnn1)C(=O)O [Compound A-59, (2S)-2-[4-bromo-2-(1,2,3-thiadiazol-4-yl)phenoxy]propanoic acid]	5.6 µM	7.9 mV
O=C(O)COc1ccc(Br)cc1-c1ccon1 [Compound A-64, 2-[4-bromo-2-(1,2-oxazol-3-yl)phenoxy]acetic acid]	7.4 µM	11.3 mV

Compounds with a lower EC50 (CIC-1 channels), results first:

EC50 (CIC-1 channels)	Δ1/2 (mV) (human CIC-1 channels)	Structure (SMILES)
3.3 µM	13.8 mV	O=C(O)[C@H](CF)Oc1ccc(Br)cc1-c1ccon1 [Compound A-31, (2R)-2-[4-bromo-2-(1,2-oxazol-3-yl)phenoxy]-3-fluoropropanoic acid]
2.9 µM	17.7 mV	C[C@H](Oc1cc(F)c(Br)cc1-c1ccon1)C(=O)O [Compound A-44, (2S)-2-[4-bromo-5-fluoro-2-(1,2-oxazol-3-yl)phenoxy]propanoic acid]

Source: patent US20260007639A1, “COMPOUNDS FOR THE TREATMENT OF NEUROMUSCULAR DISORDERS” (NMD PHARMA A/S, priority 2017, published 2026)
